Patent US12679878B2, “CRF2 receptor agonists and their use in therapy” (SANOFI, priority 2020, dated 2026)
Like-named read-outs stand apart in the source and are kept apart here. Starred links: 1 amine or outer side, 2 acyl side, 3 side chain; linkers in the order of their positions; H or OH if unused. Non-standard residues stand in square brackets, D forms with d. Residues, ends and D or L forms follow the SMILES beside them. Groups on a side chain read outwards from the residue. *: point of attachment. C20 diacid = O=C(O)CCCCCCCCCCCCCCCCCCC(=O)*; C18 diacid = O=C(O)CCCCCCCCCCCCCCCCC(=O)*; γGlu = O=C(O)[C@H](CCC(=O)[*:2])N[*:1]; AEEA = NCCOCCOCC(=O)O; Aib = CC(C)(N)C(=O)O

Experiments:
Type in all cases: cell-based
human CRF2α receptor = biological target: T1, human CRF2α receptor (Homo sapiens, UniProt Q13324); assay: cAMP agonism at human CRF2 α receptor in TeloHEAC cells (Example 7); settings: cAMP HTRF, TeloHEAC cells stably expressing human CRF2 α
T1 construct: expressed in transfected cells; host or cells: TeloHEAC
T1 sequence (Q13324 1-411): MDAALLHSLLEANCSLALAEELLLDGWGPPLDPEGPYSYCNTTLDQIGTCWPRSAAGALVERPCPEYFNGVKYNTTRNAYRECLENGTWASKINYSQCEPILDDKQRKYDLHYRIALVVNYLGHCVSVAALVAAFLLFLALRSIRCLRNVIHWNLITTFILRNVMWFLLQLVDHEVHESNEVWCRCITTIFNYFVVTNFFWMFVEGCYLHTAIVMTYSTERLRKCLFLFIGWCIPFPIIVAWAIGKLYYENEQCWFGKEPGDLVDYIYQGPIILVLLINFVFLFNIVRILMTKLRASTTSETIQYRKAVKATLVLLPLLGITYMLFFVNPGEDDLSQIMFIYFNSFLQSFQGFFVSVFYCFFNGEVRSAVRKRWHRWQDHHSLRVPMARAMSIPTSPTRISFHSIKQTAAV
In short: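 Percent activation was referenced to 1000 nM UCN2 (100%), and EC50 values taken as concentrations giving half of maximal response. The read-out was a homogeneous time-resolved fluorescence cAMP kit, fluorescence ratio 665/620 nm. Thawed cells (2000/well) saw compound for 30 min at RT in buffer with 2 mM IBMX and 0%/0.1% HSA.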

rat CRF2R α receptor = assay: cAMP agonism at rat CRF2R α receptor in A7R5 rat aortic smooth muscle cells (Example 8); settings: cAMP HTRF, A7R5 rat aortic smooth muscle cell line, 0% HSA
In short: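 Thawed cryopreserved A7R5 cells in HBSS/20 mM HEPES (0 or 0.1% HSA) with 2 mM IBMX, 2000 cells/well, were exposed to compound for 30 min at room temperature. cAMP was read by HTRF (665/620 nm ratio) after 1 h with lysis reagents. Activity was normalised to 1000 nM urocortin 2 as 100%, and EC50 was taken as the concentration giving 50% of maximal activation.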

CRF1R receptor = biological target: T2, CRF1R receptor (Homo sapiens, UniProt P34998); assay: cAMP activity at anti-target CRF1R, CRF1R-overexpression CHO cell line (Example 9); settings: CRF1R-overexpression CHO cell line; for EC50: 0% HSA; for Emax: read-out: Emax (%)
T2 construct: host or cells: CHO-K1 clone 2
T2 sequence (P34998 24-415): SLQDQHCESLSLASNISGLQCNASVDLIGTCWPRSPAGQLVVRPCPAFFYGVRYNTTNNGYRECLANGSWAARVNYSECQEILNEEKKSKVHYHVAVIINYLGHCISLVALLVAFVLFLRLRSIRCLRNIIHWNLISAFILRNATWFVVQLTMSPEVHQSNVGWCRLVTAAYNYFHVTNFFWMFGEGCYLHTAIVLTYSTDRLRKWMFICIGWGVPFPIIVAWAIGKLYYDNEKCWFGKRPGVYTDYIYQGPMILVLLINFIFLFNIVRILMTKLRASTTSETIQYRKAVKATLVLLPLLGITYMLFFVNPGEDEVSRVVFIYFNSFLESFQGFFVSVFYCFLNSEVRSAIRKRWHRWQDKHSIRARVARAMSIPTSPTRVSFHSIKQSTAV
In short: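 cAMP accumulation was read by HTRF after 30 min at room temperature of compound treatment. Cells were cryopreserved CHO cells overexpressing CRF1R, plated at 2000/well in IBMX (2 mM)-containing HBSS/HEPES buffer with 0 or 0.1% HSA. Activity was normalized to 1000 nM UCN2 as 100%.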

[1] = 0% HSA, read-out: EC50 [nM], 0% HSA
[2] = 0.1% HSA, read-out: EC50 [nM], 0.1% HSA

Row | Structure (SMILES) | EC50 (human CRF2α receptor; [1]) [nM] | EC50 (rat CRF2R α receptor) [nM] | EC50 (CRF1R receptor) [nM] | Emax (CRF1R receptor) [%] | EC50 (human CRF2α receptor; [2]) [nM]
1 | CC[C@H](C)[C@H](NC(=O)[C@H](CCC(N)=O)NC(=O)[C@H](CCCCNC(=O)COCCOCCNC(=O)COCCOCCNC(=O)CC[C@H](NC(=O)CCCCCCCCCCCCCCCCCCC(=O)O)C(=O)O)NC(=O)[C@H](CC(C)C)NC(=O)[C@H](CCCCN)NC(=O)[C@@H](NC(=O)[C@@H]1CCCN1C(=O)[C@@H](NC(=O)[C@H](CC(=O)O)NC(=O)[C@H](CC(C)C)NC(=O)[C@H](CO)NC(=O)[C@H](CC(C)C)NC(=O)[C@@H](NC(=O)[C@@H](N)Cc1ccccc1)[C@@H](C)O)C(C)C)[C@@H](C)CC)C(=O)N[C@@H](CC(C)C)C(=O)N[C@@H](CC(C)C)C(=O)N[C@@H](CCC(=O)O)C(=O)N[C@@H](CCC(N)=O)C(=O)N[C@@H](CCC(N)=O)C(=O)N[C@@H](CCCCN)C(=O)N[C@@H](CCC(N)=O)C(=O)N[C@@H](CCCCN)C(=O)N[C@@H](CCCCN)C(=O)N[C@@H](CCC(=O)O)C(=O)N[C@@H](CCCNC(=N)N)C(=O)N[C@@H](CCC(N)=O)C(=O)N[C@@H](CCC(N)=O)C(=O)N[C@@H](C)C(=O)N[C@@H](CCC(=O)O)C(=O)N[C@H](C(=O)N[C@@H](CC(N)=O)C(=O)N[C@H](C(=O)N[C@@H](CCC(N)=O)C(=O)N[C@@H](CC(C)C)C(=O)N[C@@H](CC(C)C)C(=O)N[C@@H](CCC(=O)O)C(=O)N[C@@H](CCCNC(=N)N)C(=O)N[C@H](C(N)=O)C(C)C)C(C)C)[C@@H](C)O [compound 63] (H-FTLSLDVPIKLK([AEEA-AEEA-γGlu-C20 diacid])QILLEQQKQKKERQQAETNVQLLERV-NH2) | 0.63 | 4.73 | > 1000 | 4.68 | 
2 | CC[C@H](C)[C@H](N)C(=O)N[C@H](C(=O)N[C@@H](CC(C)C)C(=O)N[C@@H](CO)C(=O)N[C@@H](CC(C)C)C(=O)N[C@@H](CC(=O)O)C(=O)N[C@H](C(=O)N1CCC[C@H]1C(=O)N[C@H](C(=O)N[C@@H](CCCCN)C(=O)N[C@@H](CC(C)C)C(=O)N[C@@H](CCCCNC(=O)COCCOCCNC(=O)COCCOCCNC(=O)CC[C@H](NC(=O)CCCCCCCCCCCCCCCCC(=O)O)C(=O)O)C(=O)N[C@@H](CCCCN)C(=O)NC(C)(C)C(=O)N[C@@H](CC(C)C)C(=O)N[C@@H](CC(C)C)C(=O)N[C@@H](CCC(=O)O)C(=O)N[C@@H](CCC(N)=O)C(=O)N[C@@H](CCC(=O)O)C(=O)N[C@@H](CCCNC(=N)N)C(=O)N[C@@H](CCC(N)=O)C(=O)N[C@@H](CCCCN)C(=O)N[C@@H](CCCCN)C(=O)N[C@@H](CCC(N)=O)C(=O)N[C@@H](CCCNC(=N)N)C(=O)N[C@@H](CCC(=O)O)C(=O)N[C@@H](CCC(N)=O)C(=O)N[C@@H](C)C(=O)N[C@@H](CCC(=O)O)C(=O)N[C@H](C(=O)N[C@@H](CC(N)=O)C(=O)N[C@@H](CCCCN)C(=O)N[C@@H](CCC(N)=O)C(=O)N[C@H](C(=O)N[C@@H](CC(C)C)C(=O)N[C@@H](C)C(=O)N[C@@H](CCC(N)=O)C(=O)N[C@H](C(N)=O)C(C)C)[C@@H](C)CC)[C@@H](C)O)[C@@H](C)CC)C(C)C)C(C)C [compound 69] (H-IVLSLDVPIKLK([AEEA-AEEA-γGlu-C18 diacid])K[Aib]LLEQERQKKQREQAETNKQILAQV-NH2; N-terminus assumed) | 0.61 | 7.33 | > 1000 | 0.02 | 

Second part, the compound after the results:

Row | EC50 (human CRF2α receptor; [1]) [nM] | EC50 (rat CRF2R α receptor) [nM] | EC50 (CRF1R receptor) [nM] | Emax (CRF1R receptor) [%] | EC50 (human CRF2α receptor; [2]) [nM] | Structure (SMILES)
3 | 0.91 | 8.72 | > 1000 | 3.03 |  | CC[C@H](C)[C@H](N)C(=O)N[C@H](C(=O)N[C@@H](CC(C)C)C(=O)N[C@@H](CO)C(=O)N[C@@H](CC(C)C)C(=O)N[C@@H](CC(=O)O)C(=O)N[C@H](C(=O)N1CCC[C@H]1C(=O)N[C@H](C(=O)N[C@@H](CCCCN)C(=O)N[C@@H](CC(C)C)C(=O)N[C@@H](CCCCNC(=O)COCCOCCNC(=O)COCCOCCNC(=O)CC[C@H](NC(=O)CCCCCCCCCCCCCCCCC(=O)O)C(=O)O)C(=O)N[C@@H](CCC(N)=O)C(=O)N[C@H](C(=O)N[C@@H](CC(C)C)C(=O)N[C@@H](CC(C)C)C(=O)N[C@@H](CCC(=O)O)C(=O)N[C@@H](CCC(N)=O)C(=O)N[C@@H](CCC(=O)O)C(=O)N[C@@H](CCCNC(=N)N)C(=O)N[C@@H](CCC(N)=O)C(=O)N[C@@H](CCCCN)C(=O)N[C@@H](CCCCN)C(=O)N[C@@H](CCC(N)=O)C(=O)N[C@@H](CCCNC(=N)N)C(=O)N[C@@H](CCC(=O)O)C(=O)N[C@@H](CCC(N)=O)C(=O)N[C@@H](C)C(=O)N[C@@H](CCC(=O)O)C(=O)N[C@H](C(=O)N[C@@H](CC(N)=O)C(=O)NC(C)(C)C(=O)N[C@@H](CCC(N)=O)C(=O)N[C@H](C(=O)N[C@@H](CC(C)C)C(=O)N[C@@H](C)C(=O)N[C@@H](CCC(N)=O)C(=O)N[C@H](C(N)=O)C(C)C)[C@@H](C)CC)[C@@H](C)O)[C@@H](C)CC)[C@@H](C)CC)C(C)C)C(C)C [compound 70] (H-IVLSLDVPIKLK([AEEA-AEEA-γGlu-C18 diacid])QILLEQERQKKQREQAETN[Aib]QILAQV-NH2; N-terminus assumed)
4 | 0.9 | 5.2 | > 1000 | 12.7 | 92.5 | CC[C@H](C)[C@H](N)C(=O)N[C@H](C(=O)N[C@@H](CC(C)C)C(=O)N[C@@H](CO)C(=O)N[C@@H](CC(C)C)C(=O)N[C@@H](CC(=O)O)C(=O)N[C@H](C(=O)N1CCC[C@H]1C(=O)N[C@H](C(=O)N[C@@H](CCCCN)C(=O)N[C@@H](CC(C)C)C(=O)N[C@@H](CCCCNC(=O)COCCOCCNC(=O)COCCOCCNC(=O)CC[C@H](NC(=O)CCCCCCCCCCCCCCCCCCC(=O)O)C(=O)O)C(=O)N[C@@H](CCC(N)=O)C(=O)N[C@H](C(=O)N[C@@H](CC(C)C)C(=O)N[C@@H](CC(C)C)C(=O)N[C@@H](CCC(=O)O)C(=O)N[C@@H](CCC(N)=O)C(=O)N[C@@H](CCC(=O)O)C(=O)N[C@@H](CCCNC(=N)N)C(=O)N[C@@H](CCC(N)=O)C(=O)N[C@@H](CCCCN)C(=O)N[C@@H](CCCCN)C(=O)N[C@@H](CCC(N)=O)C(=O)N[C@@H](CCCNC(=N)N)C(=O)N[C@@H](CCC(=O)O)C(=O)N[C@@H](CCC(N)=O)C(=O)N[C@@H](C)C(=O)N[C@@H](CCC(=O)O)C(=O)N[C@H](C(=O)N[C@@H](CC(N)=O)C(=O)NC(C)(C)C(=O)N[C@@H](CCC(N)=O)C(=O)N[C@H](C(=O)N[C@@H](CC(C)C)C(=O)N[C@@H](C)C(=O)N[C@@H](CCC(N)=O)C(=O)N[C@H](C(N)=O)C(C)C)[C@@H](C)CC)[C@@H](C)O)[C@@H](C)CC)[C@@H](C)O)C(C)C)C(C)C [compound 80] (H-IVLSLDVPTKLK([AEEA-AEEA-γGlu-C20 diacid])QILLEQERQKKQREQAETN[Aib]QILAQV-NH2)
5 | 0.1 | 0.73 | > 1000 | 0.14 | 3.58 | CC[C@H](C)[C@H](N)C(=O)N[C@H](C(=O)N[C@@H](CC(C)C)C(=O)N[C@@H](CO)C(=O)N[C@@H](CC(C)C)C(=O)N[C@@H](CC(=O)O)C(=O)N[C@H](C(=O)N1CCC[C@H]1C(=O)N[C@H](C(=O)N[C@@H](CCCCN)C(=O)N[C@@H](CC(C)C)C(=O)N[C@@H](CCCCNC(=O)COCCOCCNC(=O)COCCOCCNC(=O)CC[C@H](NC(=O)CCCCCCCCCCCCCCCCC(=O)O)C(=O)O)C(=O)N[C@@H](CCC(N)=O)C(=O)N[C@H](C(=O)N[C@@H](CC(C)C)C(=O)N[C@@H](CC(C)C)C(=O)N[C@@H](CCCCN)C(=O)N[C@@H](CCC(N)=O)C(=O)N[C@@H](CCC(=O)O)C(=O)N[C@@H](CCCNC(=N)N)C(=O)N[C@@H](CCC(N)=O)C(=O)N[C@@H](CCCCN)C(=O)N[C@@H](CCCCN)C(=O)N[C@@H](CCC(N)=O)C(=O)N[C@@H](CCCNC(=N)N)C(=O)N[C@@H](CCC(=O)O)C(=O)N[C@@H](CCC(N)=O)C(=O)N[C@@H](C)C(=O)N[C@@H](CCC(=O)O)C(=O)N[C@H](C(=O)N[C@@H](CC(N)=O)C(=O)N[C@@H](CCCCN)C(=O)N[C@@H](CCC(N)=O)C(=O)N[C@H](C(=O)N[C@@H](CC(C)C)C(=O)N[C@@H](C)C(=O)N[C@@H](CCC(N)=O)C(=O)N[C@H](C(N)=O)C(C)C)[C@@H](C)CC)[C@@H](C)O)[C@@H](C)CC)[C@@H](C)CC)C(C)C)C(C)C [compound 85] (H-IVLSLDVPIKLK([AEEA-AEEA-γGlu-C18 diacid])QILLKQERQKKQREQAETNKQILAQV-NH2; N-terminus assumed)
